Measured values: paper PMC11434980, “Deciphering Chemical Rules for Drug Penetration into Strongyloides” (Pharmaceutics, 2024)
Entries after “also recorded” stand apart in the source; their conditions may differ. Read-outs that look alike come from different tables or passages of the source.

Key:
S. venezuelensis L3s [1] = test: Staining (uptake) of L3 larvae by the dyes; type: cell-based, Strongyloides venezuelensis; settings: for lowest staining concentration (Conc): 72 h
Protocol: (§1) Baerman-obtained S. venezuelensis L3s were rinsed twice with distilled water and counted, and 100 to 150 larvae were placed per well in 96-well flat-bottom culture plates. Larvae were incubated at 28 °C for 30 min to allow adaptation and treated with compounds in the range of 0.5–40 µM for 72 h at 28 °C in a humid atmosphere. Mortality was assessed as the lack of any movement detected during 1 min of observation under an inverted microscope (40×), at 24, 48, and 72 h after treatment. The ability to stain the larvae was pointed out when observed; at 72 h, larvae were collected and washed two times with distilled water and placed in a new well to remove the background color and photographed. Pictures were also taken at 24 and 48 h without cleaning the larvae so as not to interfere with the 72 h readout of the experiment. […] All experiments were conducted in triplicate and at least three different times. The antiparasitic activity of the compounds was expressed as the concentration that inhibited the motility of half of the larvae (immobilization concentration 50, IC50).

S. venezuelensis L3s [2] = test: microbe, parasite or virus in culture; settings: for significant activity against the L3s: L3 motility, 72 h of treatment
Protocol: as §1
A total of 15 dyes were tested against S. venezuelensis L3s at a 20 µM concentration. The activity was determined by the number of larvae lacking motility relative to the total number in the well after 1 min of light excitation at 24, 48, and 72 h after treatment.

[3] = test system: parasitic females of S. venezuelensis; test: In vitro activity against adult females (movement categories); type: cell-based, Strongyloides venezuelensis; settings: for effect on adult females / Activity against parasitic females 1 h / Activity against parasitic females 24 h / Activity against parasitic females 48 h / Activity against parasitic females 72 h: 10 µM, 50–70 worms per well; for Activity against Adults @10 µM 72 h: adult females
Protocol: Seven to nine days after infection, the mice or rats were euthanized and the small intestine was removed, sliced longitudinally, minced, and placed in a sedimentation cup wrapped in 8 layers of gauze in phosphate-buffered solution (PBS) for two hours at 37 °C. Parasitic females were collected from the sediment and washed twice with saline solution (NaCl 0.15 mol/L) and twice with Roswell Park Memorial Institute 1640 (RPMI 1640) (Gibco, Whaltman, MA, USA) supplemented with 10% heat-inactivated FBS, 100 µg/mL streptomycin, and 100 U/mL penicillin (Gibco, Whaltman, MA, USA) to avoid contamination during the in vitro assays. After collection, females were placed in 96-well plates with supplemented RPMI medium and kept at 37 °C. We tested three different female population densities to explore the effects on the measured activity: 1–3 females, 10–15 females, and 50–70 females per well. At 24 h after plating, the compounds were applied at 10 µM and the anti-parasitic activity was evaluated at 1, 24, 48, and 72 h after treatment based on movement for 30 s observation periods under the microscope (40×). […] All experiments were conducted in duplicate and at least three different times. […]

Cytotoxicity, MTT method = type: cell-based, human; settings: human; HeLa cells, 72 h, MTT; read-out: HeLa IC50 (antiproliferative activity / cytotoxicity)
Protocol: (§2) A cytotoxicity test was performed using the HeLa (human cervical cancer) cell line according to the MTT method. Cells were from the ATCC (Manassas, VA, USA). They were cultured at 37 °C in sub-confluent conditions under a 95% humidified atmosphere and 5% CO2 in Dulbecco’s Modified Eagle Medium (DMEM) (Gibco, Whaltman, MA, USA) supplemented with 10% heat-inactivated FBS, 2 mM L-glutamine, 100 U/mL penicillin, and 100 µg/mL streptomycin. […] The antiproliferative activity was measured in triplicate after 72 h using the MTT (3-(4,5-dimethylthiazol-2-yl)-2,5-diphenyltetrazolium bromide) Cell Proliferation Kit (Roche, Boston, MA, USA), following the manufacturer’s specifications. […] The selectivity index (SI = HeLa IC50/L3 IC50) for each compound was calculated to compare the antiparasitic activity with its respective human cell cytotoxicity.

[4] = test system: HeLa (human cervical cancer) cell line; test: Cytotoxicity, MTT method; type: cell-based; settings: for IC50: HeLa cells, 72 h, read-out: HeLa IC50 (antiproliferative activity / cytotoxicity); for IC50 / antiproliferative activity against HeLa cells at 10 µM: MTT
Protocol: as §2

[5] = test system: parasitic females of S. venezuelensis; test: Staining of adult females by the dyes; type: cell-based, Strongyloides venezuelensis; settings: 10 µM; for Staining (Time): time at which staining of females was seen
[6] = read-out: IC50 72 h (immobilization concentration 50 of cultured L3s), L3s, 72 h
[7] = read-out: IC50 24 h (immobilization concentration 50 of cultured L3s), L3s, 24 h
[8] = read-out: IC50 48 h (immobilization concentration 50 of cultured L3s), L3s, 48 h
[9] = L3S, 72 h, read-out: IC50 72 h (L3)

Molecule: CC(=O)Oc1ccc2c(c1)Oc1cc(OC(C)=O)ccc1C21OC(=O)c2ccccc21 [Fluorescein Diacetate]
- Staining 72 h (L3 staining ability) (S. venezuelensis L3s [1]): No
- significant activity against the L3s (S. venezuelensis L3s [2]): did not show significant activity
- Screening 20 µM 72 h (S. venezuelensis L3s [2]; L3s, 72 h): No

Molecule: CCCCCCCCCCCCCCCCCCOCC(COP(=O)([O-])OCC[N+](C)(C)C)OC (stereo not drawn) [Edelfosine]
- Screening 20 µM 72 h (S. venezuelensis L3s [2]; L3s, 72 h): No

Molecule: Oc1cc2c(cc1O)[C@@H]1c3ccc(O)c(O)c3OC[C@]1(O)C2 [Hematoxylin]
- Staining 72 h (L3 staining ability) (S. venezuelensis L3s [1]): No
- significant activity against the L3s (S. venezuelensis L3s [2]): did not show significant activity
- Screening 20 µM 72 h (S. venezuelensis L3s [2]; L3s, 72 h): No

Molecule: O=[N+]([O-])c1ccc2c(N=Nc3ccc4ccccc4c3O)c(O)cc(S(=O)(=O)[O-])c2c1.[Na+] [Eriochrome Black T]
- Staining 72 h (L3 staining ability) (S. venezuelensis L3s [1]): No
- significant activity against the L3s (S. venezuelensis L3s [2]): did not show significant activity
- Screening 20 µM 72 h (S. venezuelensis L3s [2]; L3s, 72 h): No
- IC50 (S. venezuelensis L3s [2]; [6]): > 40 µM

Molecule: Cc1c(C(=O)O)c(O)cc2c1C(=O)c1c(O)c(C3O[C@H](CO)[C@@H](O)[C@H](O)[C@H]3O)c(O)c(O)c1C2=O (stereo in doubt) [Carmine]
- Staining 72 h (L3 staining ability) (S. venezuelensis L3s [1]): No
- significant activity against the L3s (S. venezuelensis L3s [2]): did not show significant activity
- Screening 20 µM 72 h (S. venezuelensis L3s [2]; L3s, 72 h): No

Molecule: COC(=O)Nc1nc2ccc(C(=O)c3ccccc3)cc2[nH]1 [Mebendazole]
- effect on adult females [3]: slightly reduced movement
- Activity against parasitic females 1 h [3]: Healthy
- Activity against parasitic females 24 h [3]: Healthy
- Activity against parasitic females 48 h [3]: Slightly affected
- Activity against parasitic females 72 h [3]: Slightly affected
- IC50 at 72 h (Cytotoxicity, MTT method): 0.2 µM
- selectivity index (SI = HeLa IC50/L3 IC50) [4]: < 0.005
- Screening 20 µM 72 h (S. venezuelensis L3s [2]; L3s, 72 h): No
- activity against L3 at 40 µM (S. venezuelensis L3s [2]; L3s): no activity

Molecule: Cc1cc(C(=C2C=CC(=N)C=C2)c2ccc(N)cc2)ccc1N [Fuchsine]
- Activity against parasitic females 1 h [3]: Healthy
- Activity against parasitic females 24 h [3]: Healthy
- Activity against parasitic females 48 h [3]: Healthy
- Activity against parasitic females 72 h [3]: Healthy
- IC50 [4]: 1 µM
- Staining 72 h (L3 staining ability) (S. venezuelensis L3s [1]): Yes
- lowest staining concentration (Conc) (S. venezuelensis L3s [1]): 2 µM
- Staining of parasitic females [5]: No
- staining of adult females [5]: did not stain
- Screening 20 µM 72 h (S. venezuelensis L3s [2]; L3s, 72 h): Active
- IC50 (S. venezuelensis L3s [2]; [7]): 7.4 ± 1.3 µM
- IC50 (S. venezuelensis L3s [2]; [8]): 6.8 ± 0.9 µM
- IC50 (S. venezuelensis L3s [2]; [6]): 3.2 ± 0.4 µM

Molecule: O=C1/C(=C2\Nc3ccc(S(=O)(=O)[O-])cc3C2=O)Nc2ccc(S(=O)(=O)[O-])cc21.[Na+].[Na+] [Indigo Carmine]
- Staining 72 h (L3 staining ability) (S. venezuelensis L3s [1]): No
- significant activity against the L3s (S. venezuelensis L3s [2]): did not show significant activity
- Screening 20 µM 72 h (S. venezuelensis L3s [2]; L3s, 72 h): No
- IC50 (S. venezuelensis L3s [2]; [6]): > 40 µM

Molecule: CC[N+](C)(CC)CCC[n+]1c(-c2ccccc2)c2cc(N)ccc2c2ccc(N)cc21.[I-].[I-] [Propidium Iodide]
- effect on adult females [3]: significantly affected
- Activity against parasitic females 1 h [3]: Slightly affected
- Activity against parasitic females 24 h [3]: Slightly affected
- Activity against parasitic females 48 h [3]: Slightly affected
- Activity against parasitic females 72 h [3]: Affected/Some deaths
- Staining 72 h (L3 staining ability) (S. venezuelensis L3s [1]): Yes
- lowest staining concentration (Conc) (S. venezuelensis L3s [1]): 3 µM
- Staining of parasitic females [5]: Yes
- staining of adult females [5]: living worms were not strongly stained
- Staining (Time) [5]: 72 h
- Screening 20 µM 72 h (S. venezuelensis L3s [2]; L3s, 72 h): Active
- IC50 (S. venezuelensis L3s [2]; [7]): 14.5 ± 4.6 µM
- IC50 (S. venezuelensis L3s [2]; [8]): 9.8 ± 3.2 µM
- IC50 (S. venezuelensis L3s [2]; [6]): 4.3 ± 0.6 µM

Molecule: Brilliant Cresyl Blue
- effect on adult females [3]: significantly affected
- Activity against parasitic females 1 h [3]: Healthy
- Activity against parasitic females 24 h [3]: Slightly affected
- Activity against parasitic females 48 h [3]: Affected
- Activity against parasitic females 72 h [3]: Affected
- IC50 [4]: > 250 µM
- Staining 72 h (L3 staining ability) (S. venezuelensis L3s [1]): Yes
- lowest staining concentration (Conc) (S. venezuelensis L3s [1]): 2.5 µM
- Staining of parasitic females [5]: Yes
- staining of adult females [5]: stained adult females after 24 h in some localized structures
- Staining (Time) [5]: 24 h
- Screening 20 µM 72 h (S. venezuelensis L3s [2]; L3s, 72 h): Active
- IC50 (S. venezuelensis L3s [2]; [7]): 14 ± 4.1 µM
- IC50 (S. venezuelensis L3s [2]; [8]): 9.6 ± 0.6 µM
- IC50 (S. venezuelensis L3s [2]; [6]): 6.8 ± 0.7 µM

Molecule: Nc1c(/N=N/c2ccc(-c3ccc(/N=N/c4cc(S(=O)(=O)O)c5ccccc5c4N)cc3)cc2)cc(S(=O)(=O)O)c2ccccc12 [Congo Red]
- Staining 72 h (L3 staining ability) (S. venezuelensis L3s [1]): No
- significant activity against the L3s (S. venezuelensis L3s [2]): did not show significant activity
- Screening 20 µM 72 h (S. venezuelensis L3s [2]; L3s, 72 h): No

Molecule: CCCSc1ccc2nc(NC(=O)OC)[nH]c2c1 [Albendazole]
- effect on adult females [3]: slightly reduced movement
- Activity against parasitic females 1 h [3]: Healthy
- Activity against parasitic females 24 h [3]: Healthy
- Activity against parasitic females 48 h [3]: Slightly affected
- Activity against parasitic females 72 h [3]: Slightly affected
- IC50 at 72 h (Cytotoxicity, MTT method): 0.3 µM
- selectivity index (SI = HeLa IC50/L3 IC50) [4]: < 0.0075
- Screening 20 µM 72 h (S. venezuelensis L3s [2]; L3s, 72 h): No
- activity against L3 at 40 µM (S. venezuelensis L3s [2]; L3s): no activity

Molecule: Cc1cc(-c2ccc(/N=N/c3c(S(=O)(=O)O)cc4cc(S(=O)(=O)O)cc(N)c4c3O)c(C)c2)ccc1/N=N/c1c(S(=O)(=O)O)cc2cc(S(=O)(=O)O)cc(N)c2c1O [Trypan Blue]
- IC50 at 72 h (Cytotoxicity, MTT method): > 10 µM
- Staining 72 h (L3 staining ability) (S. venezuelensis L3s [1]): Yes
- lowest staining concentration (Conc) (S. venezuelensis L3s [1]): 20 µM
- significant activity against the L3s (S. venezuelensis L3s [2]): did not show significant activity

Molecule: Cc1ccc2nc(NC(=O)c3cccnc3)sc2c1 [Compound 20, N-(6-methylbenzo[d]thiazol-2-yl)nicotinamide]
- Activity against Adults @10 µM 72 h [3]: did not show any potency; also recorded: Healthy
- antiproliferative activity against HeLa cells at 10 µM [4]: no antiproliferative activity
- IC50 (S. venezuelensis L3s [2]; [9]): > 20 µM
- Activity against L3 @20 µM 72 h (S. venezuelensis L3s [2]; L3s, 72 h): did not show any activity and no in vitro activity and No

Molecule: Oc1ccc2ccccc2c1N=Nc1ccc(N=Nc2ccccc2)cc1 [Sudan III]
- Staining 72 h (L3 staining ability) (S. venezuelensis L3s [1]): No
- significant activity against the L3s (S. venezuelensis L3s [2]): did not show significant activity
- Screening 20 µM 72 h (S. venezuelensis L3s [2]; L3s, 72 h): No
- IC50 (S. venezuelensis L3s [2]; [6]): > 40 µM

Molecule: Cc1ccc2nc(NC(=O)c3ccc(N4CCN(C)CC4)nc3)sc2c1 [Compound 22, N-(6-methylbenzo[d]thiazol-2-yl)-6-(4-methylpiperazin-1-yl)nicotinamide]
- Activity against Adults @10 µM 72 h [3]: slightly affecting but not killing; also recorded: Slightly affected
- antiproliferative activity against HeLa cells at 10 µM [4]: no antiproliferative activity
- IC50 (S. venezuelensis L3s [2]; [9]): 8.6 ± 2.3 µM
- mortality at 20 µM (S. venezuelensis L3s [2]; L3S, 72 h, read-out: L3 mortality rate): 100%
- Activity against L3 @20 µM 72 h (S. venezuelensis L3s [2]; L3s, 72 h): Yes

Molecule: CN(C)c1ccc(N=Nc2ccc(S(=O)(=O)[O-])cc2)cc1.[Na+] [Methyl Orange]
- Staining 72 h (L3 staining ability) (S. venezuelensis L3s [1]): No
- significant activity against the L3s (S. venezuelensis L3s [2]): did not show significant activity
- Screening 20 µM 72 h (S. venezuelensis L3s [2]; L3s, 72 h): No
- IC50 (S. venezuelensis L3s [2]; [6]): > 40 µM
